Laboratory results from ChEMBL document CHEMBL1153619, “The role of phenolic hydroxy groups in the free radical scavenging activity of betalains” (J Nat Prod, 2009).

Tests used:
[1] = ABTS radical scavenging activity assessed as Trolox equivalent antioxidant capacity index at pH 7 by spectrophotometry; type: physicochemical
[2] = Antioxidant activity assessed as Trolox molar equivalence for reduction of Fe(III) at pH 3.6 by ferric reducing antioxidant power assay; type: functional

| SMILES | Activity [1] | Activity [2] |
| --- | --- | --- |
| O=C(O[C@@H]1Cc2c(O)cc(O)cc2O[C@@H]1c1cc(O)c(O)c(O)c1)c1cc(O)c(O)c(O)c1 [EPIGALOCATECHIN GALLATE] | 4.8 |  |
| O=C(O)C1=C/C(=C\C=N/CCc2ccc(O)c(O)c2)C[C@@H](C(=O)O)N1 |  | 3.3 |
| CCC/N=C\C=C1/C=C(C(=O)O)N[C@H](C(=O)O)C1 |  | 1.1 |

Continued, in another order:

| Activity [1] | SMILES | Activity [2] |
| --- | --- | --- |
| 4 | O=C(O)C1=C/C(=C\C=N/CCc2ccc(O)cc2)C[C@@H](C(=O)O)N1 | 1.1 |
| 4.1 | O=C(O)C1=C/C(=C\C=N/CCc2cccc(O)c2)C[C@@H](C(=O)O)N1 | 2.7 |
| 2.7 | Oc1ccc(/C=C/c2cc(O)cc(O)c2)cc1 [RESVERATROL] |  |
| 2.3 | O=C(O)C1=C/C(=C\C=N/CCc2ccccc2)C[C@@H](C(=O)O)N1 | 1.1 |
